Data from ChEMBL document CHEMBL4765332, “A multi-scale systems pharmacology approach uncovers the anti-cancer molecular mechanism of Ixabepilone” (Eur J Med Chem, 2020).
Calls of active or inactive are those of the source. The calls are words filed in the database; no cut-off is given here.

What was measured:
MDA-MB-231 [1] = assay: Cytotoxicity against human MDA-MB-231 cells transfected with Beclin1 siRNA at 0.1 to 1.6 uM measured after 48 hrs by CCK8 assay; format: functional, cell-based; settings: dose 0.1-1.6 µM
MDA-MB-231 [2] = assay: Induction of apoptosis in human MDA-MB-231 cells assessed as increase in cleaved PARP level pretreated with 20 uM autophagy inhibitor, CQ for 1 hr followed by incubation with drug for 48 hrs by western blot analysis; format: functional, cell-based
BT-549 [3] = assay: Induction of apoptosis in human BT-549 cells assessed as late apoptotic cells incubated for 48 hrs by AnnexinV-FITC and propidium iodide staining based flow cytometry analysis(reference value: 0.599%); format: functional
[4] = biological target: T1, Apoptosis regulator Bcl-2 (Homo sapiens, UniProt P10415); assay: Induction of Bcl-2 phosphorylation-mediated protein degradation in human U251 cells assessed as decrease in Bcl-2 expression at 0.4 uM measured after 12 to 48 hrs by western blot analysis; format: cell-based; settings: U-251, time 12-48 hrs
T1 sequence (P10415 whole entry): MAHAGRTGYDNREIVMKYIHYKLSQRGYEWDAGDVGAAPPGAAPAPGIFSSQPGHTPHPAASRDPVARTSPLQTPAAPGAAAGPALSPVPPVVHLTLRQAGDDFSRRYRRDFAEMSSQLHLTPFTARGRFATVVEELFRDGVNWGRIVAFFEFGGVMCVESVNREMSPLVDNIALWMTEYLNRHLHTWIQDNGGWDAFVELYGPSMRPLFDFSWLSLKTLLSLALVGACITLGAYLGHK

[5] = biological target: T1, Apoptosis regulator Bcl-2; assay: Induction of Bcl-2 phosphorylation-mediated protein degradation in human MDA-MB-231 cells assessed as decrease in Bcl-2 expression measured after 48 hrs by western blot analysis; format: cell-based; settings: dose 0.05-0.4 µM
[6] = biological target: T1, Apoptosis regulator Bcl-2; assay: Induction of Bcl-2 phosphorylation-mediated protein degradation in human MCF7 cells assessed as decrease in Bcl-2 expression at 0.1 uM by western blot analysis; format: cell-based; settings: time 12-48 hrs, TDE = time-dependent effect
BT-549 [7] = assay: Induction of apoptosis in human BT-549 cells assessed as increase in cleaved caspase 3 level pretreated with 20 uM autophagy inhibitor, CQ for 1 hr followed by incubation with drug for 48 hrs by western blot analysis; format: functional, cell-based
MCF7 = assay: Cytotoxicity against human MCF-7 cells at 0.1 to 1.6 uM measured after 48 hrs in presence of 20 uM autophagy inhibitor, chloroquine by CCK8 assay; format: functional, cell-based; settings: dose 0.1-1.6 µM
BT-549 [8] = assay: Cytotoxicity against human BT-549 cells at 0.1 to 1.6 uM measured after 48 hrs in presence of 20 uM autophagy inhibitor, chloroquine by CCK8 assay; format: functional, cell-based; settings: dose 0.1-1.6 µM
[9] = biological target: T1, Apoptosis regulator Bcl-2; assay: Upregulation of Bcl-2 phosphorylation at Ser70 residue in human MCF7 cells at 0.1 microM incubated for 12 to 36 hrs by western blot analysis; format: cell-based; settings: time 12-36 hrs
[10] = biological target: T1, Apoptosis regulator Bcl-2; assay: Induction of Bcl-2 phosphorylation-mediated protein degradation in human MDA-MB-231 cells assessed as disruption of Bcl2/Beclin1 interaction at 0.2 uM measured after 48 hrs by co-immunoprecipitation analysis; format: cell-based
BT-549 [11] = assay: Induction of autophagy in human BT-549 cells transfected with GFP-LC3 assessed as increase in GFP-LC3 puncta formation after 12 hrs by fluorescence microscopic analysis; format: functional, cell-based
HepG2 [12] = assay: Cytotoxicity against human HepG2 cells at 0.1 to 1.6 uM measured after 48 hrs in presence of 20 uM autophagy inhibitor, chloroquine by CCK8 assay; format: functional, cell-based; settings: dose 0.1-1.6 µM
[13] = biological target: T1, Apoptosis regulator Bcl-2; assay: Induction of Bcl-2 phosphorylation-mediated protein degradation in human U251 cells assessed as decrease in Bcl-2 expression at 0.4 to 6.4 uM measured after 48 hrs by western blot analysis; format: cell-based; settings: U-251, dose 0.4-6.4 µM
[14] = biological target: T1, Apoptosis regulator Bcl-2; assay: Induction of Bcl-2 phosphorylation-mediated protein degradation in human HepG2 cells assessed as decrease in Bcl-2 expression at 0.4 uM measured after 12 to 48 hrs by western blot analysis; format: cell-based; settings: time 12-48 hrs
BT-549 [15] = assay: Induction of apoptosis in human BT-549 cells assessed as viable cells incubated for 48 hrs by AnnexinV-FITC and propidium iodide staining based flow cytometry analysis(reference value: 98.6%); format: functional
[16] = biological target: T1, Apoptosis regulator Bcl-2; assay: Induction of Bcl-2 phosphorylation-mediated protein degradation in human MDA-MB-231 cells assessed as decrease in Bcl-2 expression at 0.1 to 0.2 uM pretreated with proteasome inhibitor, MG132 for 2 hrs followed by incubation with compound for 48 hrs by western blot analysis; format: cell-based; settings: dose 0.1-0.2 µM
MDA-MB-231 [17] = assay: Induction of autophagy in human MDA-MB-231 cells assessed increase in LC3-II level at 0.1 to 0.2 uM preincubated with 20 uM autophagosome-lysosome fusion inhibitor, chloroquine for 1 hr followed by incubation with compound for 48 hrs by western blot analysis; format: functional, cell-based; settings: dose 0.1-0.2 µM
[18] = biological target: T1, Apoptosis regulator Bcl-2; assay: Upregulation of Bcl-2 phosphorylation at Ser70 residue in human MDA-MB-231 cells at 0.1 microM incubated for 12 to 36 hrs by western blot analysis; format: cell-based; settings: time 12-36 hrs
MDA-MB-231 [19] = assay: Antitumor activity against human MDA-MB-231 cells xenografted in BALB/c mouse assessed as tumor growth inhibition at 3 mg/kg, ip administered every other day measured every 3 days by vernier caliper analysis; format: functional, organism-based
BT-549 [20] = assay: Induction of apoptosis in human BT-549 cells transfected with Beclin1 siRNA assessed as increase in cleaved PARP level measured after 48 hrs by western blot analysis; format: functional, cell-based
[21] = biological target: T1, Apoptosis regulator Bcl-2; assay: Induction of Bcl-2 phosphorylation-mediated protein degradation in human MDA-MB-231 cells assessed as decrease in Bcl-2 expression at 0.1 uM by western blot analysis; format: cell-based; settings: time 12-48 hrs, TDE = time-dependent effect
BT-549 [22] = assay: Induction of apoptosis in human BT-549 cells assessed as necrotic cells incubated for 48 hrs in presence of 20 uM autophagy inhibitor, CQ by AnnexinV-FITC and propidium iodide staining based flow cytometry analysis(reference value: 0.86%); format: functional
[23] = biological target: T1, Apoptosis regulator Bcl-2; assay: Induction of Bcl-2 phosphorylation-mediated protein degradation in human BT549 cells assessed as decrease in Bcl-2 expression at 0.1 uM by western blot analysis; format: cell-based; settings: BT-549, time 12-48 hrs, TDE = time-dependent effect
[24] = biological target: T1, Apoptosis regulator Bcl-2; assay: Induction of Bcl-2 phosphorylation-mediated protein degradation in human BT549 cells assessed as decrease in Bcl-2 expression measured after 48 hrs by western blot analysis; format: cell-based; settings: BT-549, dose 0.05-0.4 µM
MDA-MB-231 [25] = assay: Induction of apoptosis in human MDA-MB-231 cells assessed as increase in cleaved caspase 3 level pretreated with 20 uM autophagy inhibitor, CQ for 1 hr followed by incubation with drug for 48 hrs by western blot analysis; format: functional, cell-based
BT-549 [26] = assay: Induction of autophagy in human BT-549 cells assessed as increase in LC3-II level measured after 48 hrs by Western blot analysis; format: functional, cell-based; settings: dose 0.05-0.4 µM
[27] = biological target: T1, Apoptosis regulator Bcl-2; assay: Upregulation of Bcl-2 phosphorylation at Ser70 residue in human MCF7 cells at 0.05 to 0.4 microM incubated for 48 hrs by western blot analysis; format: cell-based; settings: dose 0.05-0.4 µM
HepG2 [28] = assay: Induction of autophagy in human HepG2 cells assessed as increase in LC3-II expression at 0.4 uM measured after 12 to 48 hrs by western blot analysis; format: functional, cell-based; settings: time 12-48 hrs
BT-549 [29] = assay: Induction of autophagy in human BT-549 cells expressing mRFP-EGFP-LC3B assessed as accumulation of yellow fluorescence signals measured after 12 hrs by fluorescence microscopic analysis; format: functional, cell-based
U-251 = assay: Cytotoxicity against human U251 cells at 0.1 to 1.6 uM measured after 48 hrs in presence of 20 uM autophagy inhibitor, chloroquine by CCK8 assay; format: functional, cell-based; settings: dose 0.1-1.6 µM
BT-549 [30] = assay: Induction of apoptosis in human BT-549 cells assessed as early apoptotic cells incubated for 48 hrs in presence of 20 uM autophagy inhibitor, CQ by AnnexinV-FITC and propidium iodide staining based flow cytometry analysis(reference value: 1.94%); format: functional

Q: `C/C(=C\c1csc(C)n1)[C@@H]1C[C@@H]2O[C@]2(C)CCC[C@H](C)[C@H](O)[C@@H](C)C(=O)C(C)(C)[C@@H](O)CC(=O)N1` [IXABEPILONE] was tested. Which Activity (MDA-MB-231 [1]) did it give?
A: Active

Q: What about the Activity (MDA-MB-231 [2]) of the same compound?
A: Active

Q: What about the Activity (BT-549 [3]) of the same compound?
A: 10%

Q: And the Activity [4]?
A: Active

Q: And the Activity [5]?
A: Dose-dependent effect

Q: And the Activity [6]?
A: Tde

Q: What about the Activity (BT-549 [7]) of the same compound?
A: Active

Q: What about the Activity (MCF7) of the same compound?
A: Active

Q: And the Activity (BT-549 [8])?
A: Active

Q: And the Activity [9]?
A: Active

Q: What about the Activity [10] of the same compound?
A: Active

Q: And the Activity (BT-549 [11])?
A: Active

Q: What about the Activity (HepG2 [12]) of the same compound?
A: Active

Q: What about the Activity [13] of the same compound?
A: Active

Q: And the Activity [14]?
A: Active

Q: What about the Activity (BT-549 [15]) of the same compound?
A: 86.3%

Q: What about the Activity [16] of the same compound?
A: inactive

Q: And the Activity (MDA-MB-231 [17])?
A: Active

Q: What about the Activity [18] of the same compound?
A: Active

Q: And the Activity (MDA-MB-231 [19])?
A: Active

Q: What about the Activity (BT-549 [20]) of the same compound?
A: Active

Q: And the Activity [21]?
A: Tde

Q: What about the Activity (BT-549 [22]) of the same compound?
A: 3.53%

Q: What about the Activity [23] of the same compound?
A: Tde

Q: And the Activity [24]?
A: Dose-dependent effect

Q: And the Activity (MDA-MB-231 [25])?
A: Active

Q: And the Activity (BT-549 [26])?
A: Dose-dependent effect

Q: What about the Activity [27] of the same compound?
A: Active

Q: And the Activity (HepG2 [28])?
A: Active

Q: And the Activity (BT-549 [29])?
A: Active

Q: And the Activity (U-251)?
A: Active

Q: And the Activity (BT-549 [30])?
A: 4.2%
